According to patent US9951056B2, “Substituted nicotinamide inhibitors of BTK and their preparation and use in the treatment of cancer, inflammation and autoimmune disease” (BEIJING INNOCARE PHARMA TECH CO., LTD., priority 2013, dated 2018):

How the values were obtained:
BTK = BTK (Homo sapiens (Human), UniProt Q06187); experiment: ADP-Glo kinase biochemical assay, IC50 determination of BTK inhibitors; details: for IC50: ADP-Glo, ATP 50 uM, values given as bins
Protocol: Biological Properties: IC50 Determination of BTK Inhibitors in ADP-Glo Kinase Biochemical Assay
Those skilled in the art will appreciate that a variety of assay formats may be used to determine the activity of the compounds described herein.
ADP-Glo™ Kinase Assay (Cat. V9102, 10000 Tests), Components: • 1×50 ml ADP-Glo™ Reagent, • 1×100 ml Kinase Detection Buffer, • 1× Kinase Detection Substrate (Lyophilized), • 1×5 ml Ultra Pure ATP, 10 mM • 1×5 ml ADP, 10 mM
• Enzyme concentration: 8 ng/5 ul. • ATP concentration: 50 uM • Substrate (peptide) concentration: 0.2 mg/ml. • Reaction buffer composition: 40 mM Tris-HCl pH7.5, 10 mM MgCl2, 2 mM MnCl2, 0.1 mg/mL BSA, 0.05 mM DTT. • Test compound concentration: DMSO≤0.5%. Methods: Compound Dosage Gradient Solution Preparation: […]
1× and 2× assay buffer were made at first. BTK kinase was diluted with 1× assay buffer but substrate was diluted with 2× assay buffer. 1 ul of diluted compound was transferred into 384-well assay plate, and then 2.0 ul of enzyme solution was added, and spun at 2000 rpm for 1 min. This mixture was incubated at 24° C. for 30 mins. 2 ul of peptide substrate/ATP mixture was added into the assay plate to start the reaction. The mixture was mixed thoroughly and then the 384-well plate was spun and incubated at 24° C. for 60 mins. 5.0 ul of ADP-Glo Reagent was added to stop the kinase activity and deplete the ATP unconsumed, and the plate was mixed thoroughly and incubated at 24° C. for 40 min. Then, 10.0 ul of Kinase Detection reagent was added, and the plate was centrifuged and then kept at 24° C. for 30 min. The luminescence signal was read on Envision.
IC50 values of compounds were calculated from a 4-parameter fit using Equation (2): Y=Bottom+(TOP-Bottom)/(1+((C/X)^hillslope)) Equation (2)
In Equation 2, Y represents % inhibition, X is the log value of the test compound concentration. IC50 was the concentration of compound where half of maximal inhibition was achieved.
All data was analyzed with IDBS XLfit5 software (ID Business Solutions Ltd., UK).

SRC = SRC (Homo sapiens (Human), UniProt P12931); experiment: kinase competition binding screen (liganded affinity beads, qPCR) at 1000 nM; details: BTK versus SRC
SRC, sequence (P12931 whole entry, looked up): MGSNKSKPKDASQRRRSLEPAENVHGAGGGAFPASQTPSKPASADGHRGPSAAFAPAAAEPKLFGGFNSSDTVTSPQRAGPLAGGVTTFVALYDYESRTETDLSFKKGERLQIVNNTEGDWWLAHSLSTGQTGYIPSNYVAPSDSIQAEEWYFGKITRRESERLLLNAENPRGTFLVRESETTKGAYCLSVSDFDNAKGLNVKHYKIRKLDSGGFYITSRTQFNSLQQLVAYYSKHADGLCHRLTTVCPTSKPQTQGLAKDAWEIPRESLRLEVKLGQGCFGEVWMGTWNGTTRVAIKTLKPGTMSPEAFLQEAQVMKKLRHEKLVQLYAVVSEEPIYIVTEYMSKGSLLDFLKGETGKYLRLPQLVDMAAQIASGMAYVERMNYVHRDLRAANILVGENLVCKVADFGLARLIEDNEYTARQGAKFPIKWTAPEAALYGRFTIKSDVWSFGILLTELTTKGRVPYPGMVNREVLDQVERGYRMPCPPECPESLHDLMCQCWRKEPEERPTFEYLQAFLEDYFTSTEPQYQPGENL

BTK, sequence (Q06187 whole entry): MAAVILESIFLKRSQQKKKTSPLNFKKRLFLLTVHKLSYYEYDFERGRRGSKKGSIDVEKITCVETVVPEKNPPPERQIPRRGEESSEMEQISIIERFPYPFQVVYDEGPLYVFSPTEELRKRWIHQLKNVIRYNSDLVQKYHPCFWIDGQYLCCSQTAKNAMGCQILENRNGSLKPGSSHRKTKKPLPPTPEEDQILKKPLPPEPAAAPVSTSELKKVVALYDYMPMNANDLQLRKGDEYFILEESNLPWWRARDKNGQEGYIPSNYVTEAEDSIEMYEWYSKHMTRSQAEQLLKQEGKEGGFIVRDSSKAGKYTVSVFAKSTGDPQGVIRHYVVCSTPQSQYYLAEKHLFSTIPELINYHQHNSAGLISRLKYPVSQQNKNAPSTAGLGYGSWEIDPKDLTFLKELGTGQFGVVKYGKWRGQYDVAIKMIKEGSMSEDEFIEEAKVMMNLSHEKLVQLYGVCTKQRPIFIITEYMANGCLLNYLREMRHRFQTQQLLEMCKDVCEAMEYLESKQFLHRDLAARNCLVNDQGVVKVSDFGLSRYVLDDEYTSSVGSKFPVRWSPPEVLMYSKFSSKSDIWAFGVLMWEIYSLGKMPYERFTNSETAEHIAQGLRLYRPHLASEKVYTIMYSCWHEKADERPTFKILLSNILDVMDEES

IC50 (BTK) [nM]	Structure (SMILES)	Fold Difference (SRC) [x]	improvement in potency over Analogs 1 and 2 (BTK; BTK, head-to-head assays) [×]
≥ 1000	C=CC(=O)N1CCN(c2ccc(C(N)=O)c(-c3ccc(F)c(OC)c3)n2)CC1 [Example 30, 6-(4-acryloylpiperazin-1-yl)-2-(4-fluoro-3-methoxyphenyl)nicotinamide]	–	–
< 500	C=CC(=O)N1CCC(n2cc(C(N)=O)c(-c3ccc(Oc4ccccc4)cc3)n2)CC1 [Example 12, 1-(1-acryloylpiperidin-4-yl)-3-(4-phenoxyphenyl)-1H-pyrazole-4-carboxamide]	–	–
≥ 1000	C=CC(=O)N1CCC(c2cc(C(N)=O)nn2-c2ccc(Oc3ccccc3)cc2)CC1 [Example 56, 5-(1-acryloylpiperidin-4-yl)-1-(4-phenoxyphenyl)-1H-pyrazole-3-carboxamide]	–	–
500 to 1000	C=CC(=O)N1CCC(c2ccc(C#N)c(-c3ccc(Oc4ccccc4)cc3)n2)CC1 [Example 24, 6-(1-acryloylpiperidin-4-yl)-2-(4-phenoxyphenyl)pyridine-3-carbonitrile]	–	–
< 500	C=CC(=O)N1CCN(c2ccc(C(N)=O)c(-c3ccc(Oc4ccccc4)cc3)c2)CC1 [Example 57, 5-(4-acryloylpiperazin-1-yl)-4′-phenoxybiphenyl-2-carboxamide]	–	–
< 500	C=CC(=O)N1CCC(c2ccc(C(N)=O)c(-c3ccc(C(O)c4ccccc4)cc3)n2)CC1 (centres unmarked) [Example 58, 6-(1-acryloylpiperidin-4-yl)-2-(4-(hydroxy(phenyl)methyl)phenyl)nicotinamide]	–	–
< 500	C/C=C(\C#N)C(=O)N1CC(n2cc(C(N)=O)c(-c3ccc(Oc4ccccc4)cc3)n2)C1 [Example 59, (E)-1-(1-(2-cyanobut-2-enoyl)azetidin-3-yl)-3-(4-phenoxyphenyl)-1H-pyrazole-4-carboxamide]	–	–
< 500	C=CC(=O)Nc1ccc(-c2ccc(C(N)=O)c(-c3ccc(Oc4ccccc4)cc3)n2)cc1 [Example 7, 6-(4-acrylamidophenyl)-2-(4-phenoxyphenyl)nicotinamide]	–	–
< 500	C=CC(=O)N1CCN(c2ccc(C(N)=O)c(-c3ccc(Oc4ccccc4)cc3F)n2)CC1 [Example 39, 6-(4-acryloylpiperazin-1-yl)-2-(2-fluoro-4-phenoxyphenyl)nicotinamide]	–	–
500 to 1000	C=CC(=O)NC1CCN(c2ccc(C(N)=O)c(-c3ccc(Oc4ccccc4)cc3)n2)CC1 [Example 9, 6-(4-acrylamidopiperidin-1-yl)-2-(4-phenoxyphenyl)nicotinamide]	–	–
< 500	C=CC(=O)N1CCN(c2ccc(C(N)=O)c(-c3ccc(OC4CCCCC4)cc3)n2)CC1 [Example 28, 6-(4-acryloylpiperazin-1-yl)-2-(4-(cyclohexyloxy)phenyl)nicotinamide]	–	–
< 500	C=CC(=O)N1CCN(c2nc(-c3ccc(Oc4ccccc4)cc3)c(C(=O)NC)s2)CC1 [Example 47, 2-(4-acryloylpiperazin-1-yl)-N-methyl-4-(4-phenoxyphenyl)thiazole-5-carboxamide]	–	–
< 500	C=CC(=O)N1CCCC(n2cc(C(N)=O)c(-c3ccc(Oc4ccccc4)cc3)n2)C1 (centres unmarked) [Example 11, 1-(1-acryloylpiperidin-3-yl)-3-(4-phenoxyphenyl)-1H-pyrazole-4-carboxamide]	–	–
< 500	C=CS(=O)(=O)N1CCN(c2ccc(C(N)=O)c(-c3ccc(Oc4ccccc4)cc3)n2)CC1 [Example 62, 2-(4-phenoxyphenyl)-6-(4-(vinylsulfonyl)piperazin-1-yl)nicotinamide]	–	–
< 500	C=CC(=O)N1CCCC(c2ccc(C(N)=O)c(-c3ccc(Oc4ccccc4)cc3)n2)C1 (centres unmarked) [Example 8, 6-(1-acryloylpiperidin-3-yl)-2-(4-phenoxyphenyl)nicotnamide]	–	–
< 500	C=CC(=O)N1CCC(n2cc(C(N)=O)c(-c3ccc(Oc4ccccc4)cc3)n2)C1 (centres unmarked) [Example 13, 1-(1-acryloylpyrrolidin-3-yl)-3-(4-phenoxyphenyl)-1H-pyrazole-4-carboxamide]	–	–
< 500	C=CC(=O)N1CCC(c2nc(C(N)=O)c(-c3ccc(Oc4ccccc4)cc3)s2)CC1 [Example 49, 2-(1-acryloylpiperidin-4-yl)-5-(4-phenoxyphenyl)thiazole-4-carboxamide]	–	–
< 500	NC(=O)c1cn(-c2cccc(N)c2)nc1-c1ccc(Oc2ccccc2)cc1 [Example 17, 1-(3-aminophenyl)-3-(4-phenoxyphenyl)-1H-pyrazole-4-carboxamide]	–	–
< 500	CN(C)C/C=C/C(=O)N1CCC(n2cc(C(N)=O)c(-c3ccc(Oc4ccccc4)cc3)n2)C1 (centres unmarked) [Example 34, 1-(1-(4-(dimethylamino)but-2-enoyl)pyrrolidin-3-yl)-3-(4-phenoxyphenyl)-1H-pyrazole-4-carboxamide]	–	–
< 500	C=CS(=O)(=O)N1CCC(c2ccc(C(N)=O)c(-c3ccc(Oc4ccccc4)cc3)n2)CC1 [Example 63, 2-(4-phenoxyphenyl)-6-(1-(vinylsulfonyl)piperidin-4-yl)nicotinamide]	–	–
< 500	C=CC(=O)N1CCC(c2nc(C(N)=O)c(-c3ccc(Oc4ccccc4)cc3)s2)C1 (centres unmarked) [Example 44, 2-(1-acryloylpyrrolidin-3-yl)-5-(4-phenoxyphenyl)thiazole-4-carboxamide]	–	–
< 500	C=CC(=O)N1CCC(c2ccc(C(N)=O)c(-c3ccc(C(=O)Nc4ccccc4)cc3)n2)CC1 [Example 61, 6-(1-acryloylpiperidin-4-yl)-2-(4-(phenylcarbamoyl)phenyl)nicotinamide]	–	–

Structure (SMILES)	IC50 (BTK) [nM]	Fold Difference (SRC) [x]	improvement in potency over Analogs 1 and 2 (BTK; BTK, head-to-head assays) [×]
C=CC(=O)N1CCN(c2ccc(C(N)=O)c(-c3ccc(Oc4ccccc4)cc3)n2)CC1 [Example 5, 6-(4-acryloylpiperazin-1-yl)-2-(4-phenoxyphenyl)nicotinamide]	< 500	>100	~100
NC(=O)c1ccc(C2CCNCC2)nc1-c1ccc(Oc2ccccc2)cc1 [Example 2, 2-(4-phenoxyphenyl)-6-(piperidin-4-yl)nicotinamide]	≥ 1000	–	–
